These are literature values, as cited in PMC3815949 (Microbial biotechnology, 2009).

In this series the test system is DmpA. In kind it is biochemical, Brucella anthropi.

Each structure is given as a SMILES string.

Usually Km stands for the concentration of substrate that gives half-maximal velocity. Regarding `NCCC(N)=O` [H-β-Ala-NH2], the Michaelis-Menten constant (Km) was roughly 1.5 mM.
`N[C@@H](Cc1cnc[nH]1)C(=O)O` [L-histidine]: the Km is roughly 51 mM.
